Patent US20220370513A1, “COMPOSITION, ANTIOXIDANT AGENT, ANTISACCHARIFICATION AGENT, NEURITE OUTGROWTH PROMOTER, AND COGNITIVE FUNCTION IMPROVER” (YAMADA BEE COMPANY, INC., priority 2019, published 2022)

Assay: ORAC (oxygen radical absorption capacity) test
Format: biochemical
Details: Trolox equivalent
Description: The antioxidation capacity of the combination of propolis and each sample was verified by an oxygen radical absorption capacity (ORAC) test. The following samples were used.
Propolis: ethanol extract powder (Brazilian green propolis, containing arginine as an excipient)
Phosphatidylserine: synthetic product
Coffee fruit extract: water/ethanol extract powder
Gotu kola extract: water extract powder (containing less than 10% of maltodextrin as an excipient)
Each sample was dissolved in a 50% ethanol aqueous solution. […]
The obtained test solution was diluted with a 75 mM phosphate buffer and put into a 96-well plate, and a fluorescein solution was added thereto. When the 96-well plate was heated to 37° C., AAPH (2,2′-azobis(2-amidinopropane)dihydrochloride) was added, and the fluorescence intensity decay time was measured with a microplate reader every 5 minutes for 1.5 hours. A standard curve was created using Trolox as a standard reagent, and the antioxidation power of each sample was calculated as a Trolox equivalent (μmol TE/g).
In Table 1, the expected value is a sum of ORAC values of respective components alone in each combination. The rate of increase is a value obtained by multiplying a result obtained by dividing the measured value by the expected value by 100.

Phosphatidylserine
Single raw material ORAC: 12 μmol TE/g
